Among the data in US9290465B2, “Substituted isoxazole amine compounds as inhibitors of SCD1” (Hoffmann-La Roche Inc., priority 2012, dated 2016) are melting point and IC50 values, retold here.

The target of one data set is T1, SCD1 (Mus musculus, UniProt P13516).
T1 construct: Mouse liver microsomes, prepared from mice fed a high-carbohydrate diet, were a source of the SCD; from tissue; host or cells: mouse liver microsomes (mice fed a high-carbohydrate diet)
T1 sequence (P13516 1-355): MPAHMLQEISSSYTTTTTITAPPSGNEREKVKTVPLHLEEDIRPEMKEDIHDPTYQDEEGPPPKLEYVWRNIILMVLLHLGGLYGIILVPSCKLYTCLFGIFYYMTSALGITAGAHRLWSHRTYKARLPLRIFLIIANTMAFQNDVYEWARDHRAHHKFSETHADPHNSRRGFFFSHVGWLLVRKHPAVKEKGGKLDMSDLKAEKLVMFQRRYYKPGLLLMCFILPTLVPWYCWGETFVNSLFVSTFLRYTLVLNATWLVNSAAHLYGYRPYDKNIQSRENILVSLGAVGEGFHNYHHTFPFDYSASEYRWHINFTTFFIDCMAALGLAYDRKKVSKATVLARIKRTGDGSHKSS
The experiment in a line: SCD assay: release of tritiated water from desaturation of 9,10-3H-stearoyl CoA, mouse liver microsomes. In kind it is biochemical. The conditions noted are these: mouse liver microsomes as SCD source; 300 nM (9,10) 3H-stearoyl CoA; 25 minutes at rt; read-out: IC50 (nM), in vitro inhibition of SCD1. The text has this: Stearoyl CoA desaturase activity was monitored by a modification of the acyl carrier protein assay described by B. R. Talamo and K. Bloch in Anal. Biochem. 1968, 29, 300-304. The SCD assay monitors the release of tritiated water from the desaturation of 9,10-^3H-stearoyl CoA.
Mouse liver microsomes, prepared from mice fed a high-carbohydrate diet, were a source of the SCD and cyt b5 and cyt b5 reductase, necessary accessory proteins for the coupled reaction. Reaction mixtures for compound titrations contained 50 mM Tris HCl pH 7.5, 100 mM NaCl, 0.165 mg/mL BSA, 2.4% DMSO, 1 mM NADH, 0.03% T-20, and 300 nM (9,10) ^3H-stearoyl CoA (Perkin-Elmer). Reactions were initiated upon the addition of 4 ug/mL SCD microsomes. Incubations were terminated after 25 minutes at rt with cold 6% TCA. After standing 10 minutes at 4° C., samples were centrifuged 15 minutes at 4000 rpm to pellet precipitated protein. Supernatants were added to microtiter plates containing suspensions of activated charcoal (Darco G-60, Fisher Scientific) and mixed by inversion. Plates were then centrifuged to separate ^3H—H2O product from charcoal-bound reactants. Supernatants were quantitated in a Perkin Elmer Topcount 384 after solubilization in ScintiSafe Plus 50% (Fisher Scientific).
Inhibition (%) of SCD activity by compounds was calculated according to the following formula: % Inhibition=100*[1−(CPMsample−CPMblank)/(CPMtotal−CPMblank)].
For orientation: Microsomes from liver hold many membrane-bound enzymes, among them those of drug oxidation.

Counter-ions that a name gives are not always drawn.

Broadly, the melting point is the temperature of the solid-liquid transition. For the compound `Nc1conc1-c1ccc(OCc2ccc(Cl)cc2)cc1` (as salt: hydrochloride) [Example 25, 3-[4-(4-Chloro-benzyloxy)-phenyl]-isoxazol-4-ylamine hydrochloride], the melting point fell in the range of 174 to 176 °C.

By IC50 is commonly meant the concentration at which inhibition is half-maximal. For the compound `Nc1conc1-c1ccc(OCc2ccc(F)cc2)cc1` [Example 2, 3-[4-(4-Fluoro-benzyloxy)-phenyl]-isoxazol-4-ylamine], the IC50 at SCD1 amounted to 612 nM.

Take `Nc1conc1-c1ccc(OCc2ccccc2)cc1` [Example 3, 3-(4-Benzyloxy-phenyl)-isoxazol-4-ylamine]: the IC50 on SCD1 came out at 464 nM.

The compound `COc1ccc(COc2ccc(-c3nocc3N)cc2)cc1` [Example 4, 3-[4-(4-Methoxy-benzyloxy)-phenyl]-isoxazol-4-ylamine] showed a melting point of 92 to 98 °C. Besides, the concentration for half-maximal inhibition (IC50) at SCD1 was found to be 104 nM.

Consider `COC(=O)c1ccc(COc2ccc(-c3nocc3N)cc2)cc1` [Example 5, 4-[4-(4-Amino-isoxazol-3-yl)-phenoxymethyl]-benzoic acid methyl ester hydrochloride], for which the IC50 on SCD1 stood at 152 nM.

Consider `CS(=O)(=O)c1ccc(COc2ccc(-c3nocc3N)cc2)cc1` [Example 6, 3-[4-(4-Methanesulfonyl-benzyloxy)-phenyl]-isoxazol-4-ylamine], for which the half-maximal inhibitory concentration (IC50) at SCD1 stood at 40 nM.

For `CS(=O)(=O)c1ccc(NCc2ccc(-c3nocc3N)cc2)cc1` [Example 7, 3-{4-[(4-methanesulfonyl-phenylamino)-methyl]-phenyl}-isoxazol-4-ylamine hydrochloride], at SCD1, the IC50 is 817 nM.

For the compound `CS(=O)(=O)c1ccc(COc2ccc(-c3nocc3N)cc2)c(Cl)c1` [Example 8, 3-[4-(2-Chloro-4-methanesulfonyl-benzyloxy)-phenyl]-isoxazol-4-ylamine], on SCD1, the IC50 turned out to be 191 nM.

As to `CS(=O)(=O)c1ccc(CCc2ccc(-c3nocc3N)cc2)cc1` [Example 9, 3-{4-[2-(4-Methanesulfonyl-phenyl)-ethyl]-phenyl}-isoxazol-4-ylamine], the IC50 at SCD1 was found to be 280 nM.

As to `Nc1conc1-c1ccc(OCCc2ccccc2)cc1` [Example 10], on SCD1, the 50% inhibitory concentration (IC50) is 1930 nM.

As to `Nc1conc1-c1ccc(OCCCc2ccccc2)cc1` [Example 11, 3-[4-(3-Phenyl-propoxy)-phenyl]-isoxazol-4-ylamine], the half-maximal inhibitory concentration (IC50) at SCD1 was 372 nM.

As for `CS(=O)(=O)c1ccc(COc2ccc(-c3nocc3N)nc2)cc1` [Example 12, 3-[5-(4-Methanesulfonyl-benzyloxy)-pyridin-2-yl]-isoxazol-4-ylamine], the concentration for half-maximal inhibition (IC50) at SCD1 is 466 nM.

Take `Cc1onc(-c2ccc(OCc3ccc(S(C)(=O)=O)cc3)cc2)c1N` [Example 13, 3-[4-(4-Methanesulfonyl-benzyloxy)-phenyl]-5-methyl-isoxazol-4-ylamine]: at SCD1, the concentration for half-maximal inhibition (IC50) was 864 nM.

In the case of `Nc1conc1-c1ccc(OCc2cccnc2)cc1` [Example 14, 3-[4-(Pyridin-3-ylmethoxy)-phenyl]-isoxazol-4-ylamine], the IC50 at SCD1 stood at 2200 nM.

On to `Nc1conc1-c1ccc(OCC(=O)c2ccccc2)cc1` [Example 15, 2-[4-(4-Amino-isoxazol-3-yl)-phenoxy]-1-phenyl-ethanone hydrochloride], for which the IC50 at SCD1 turned out to be 395 nM.

As to `Nc1conc1-c1ccc(OCc2ccc([N+](=O)[O-])cc2)cc1` [Example 16, 3-[4-(4-Nitro-benzyloxy)-phenyl]-isoxazol-4-ylamine hydrochloride], the IC50 at SCD1 amounted to 264 nM.

`N#Cc1ccc(COc2ccc(-c3nocc3N)cc2)cc1` [Example 17, 4-[4-(4-Amino-isoxazol-3-yl)-phenoxymethyl]-benzonitrile hydrochloride]: at SCD1, the IC50 came out at 603 nM.

Regarding `N#Cc1cccc(COc2ccc(-c3nocc3N)cc2)c1` [Example 18, 3-[4-(4-Amino-isoxazol-3-yl)-phenoxymethyl]-benzonitrile hydrochloride], at SCD1, the IC50 stood at 315 nM.

Consider `Nc1conc1-c1ccc(OCc2ccc(C(F)(F)F)cc2)cc1` [Example 19, 3-[4-(4-Trifluoromethyl-benzyloxy)-phenyl]-isoxazol-4-ylamine hydrochloride], for which, at SCD1, the IC50 is 391 nM.

As for `Nc1conc1-c1ccc(OCc2ccc(OC(F)(F)F)cc2)cc1` [Example 20, 3-[4-(4-Trifluoromethoxy-benzyloxy)-phenyl]-isoxazol-4-ylamine hydrochloride], at SCD1, the half-inhibitory concentration (IC50) was 135 nM.

In the case of `Nc1conc1-c1ccc(OCc2cc(F)cc(F)c2)cc1` [Example 21, 3-[4-(3,5-Difluoro-benzyloxy)-phenyl]-isoxazol-4-ylamine hydrochloride], the concentration for half-maximal inhibition (IC50) at SCD1 stood at 257 nM.

Regarding `Nc1conc1-c1ccc(OCc2ccccc2Cl)cc1` [Example 22, 3-[4-(2-Chloro-benzyloxy)-phenyl]-isoxazol-4-ylamine hydrochloride], the IC50 at SCD1 was determined as 1740 nM.

For `Cc1ccc(COc2ccc(-c3nocc3N)cc2)cc1C` [Example 23, 3-[4-(3,4-Dimethyl-benzyloxy)-phenyl]-isoxazol-4-ylamine hydrochloride], the IC50 on SCD1 was 148 nM.

As to `Nc1conc1-c1ccc(OCc2cccc(OC(F)(F)F)c2)cc1` [Example 24, 3-[4-(3-Trifluoromethoxy-benzyloxy)-phenyl]-isoxazol-4-ylamine hydrochloride], the IC50 on SCD1 turned out to be 1350 nM.

With `Nc1conc1-c1ccc(OCc2ccc(Cl)cc2)cc1` [Example 25, 3-[4-(4-Chloro-benzyloxy)-phenyl]-isoxazol-4-ylamine hydrochloride], the concentration for half-maximal inhibition (IC50) on SCD1 came out at 246 nM.

`Nc1conc1-c1ccc(OCc2ccc(Cl)c(Cl)c2)cc1` [Example 26, 3-[4-(3,4-Dichloro-benzyloxy)-phenyl]-isoxazol-4-ylamine hydrochloride]: the IC50 at SCD1 came out at 162 nM.

In the case of `Cc1ccc(COc2ccc(-c3nocc3N)cc2)cc1` [Example 27, 3-[4-(4-Methyl-benzyloxy)-phenyl]-isoxazol-4-ylamine hydrochloride], at SCD1, the 50% inhibitory concentration (IC50) amounted to 196 nM.

For `Nc1conc1-c1ccc(OCc2ccc(I)cc2)cc1` [Example 28, 3-[4-(4-Iodo-benzyloxy)-phenyl]-isoxazol-4-ylamine], the IC50 on SCD1 stood at 126 nM.

Consider `CC(C)c1ccc(COc2ccc(-c3nocc3N)cc2)cc1` [Example 29, 3-[4-(4-Isopropyl-benzyloxy)-phenyl]-isoxazol-4-ylamine], for which the IC50 at SCD1 stood at 161 nM.

As to `CCS(=O)(=O)c1ccc(COc2ccc(-c3nocc3N)cc2)cc1` [Example 31, 3-[4-(4-Ethanesulfonyl-benzyloxy)-phenyl]-isoxazol-4-ylamine], at SCD1, the IC50 stood at 65 nM.

On to `Nc1conc1-c1ccc(OCc2ccc3c(c2)CCS3(=O)=O)cc1` [Example 32, 3-[4-(1,1-Dioxo-2,3-dihydro-1H-1lambda*6*-benzo[b]thiophen-5-ylmethoxy)-phenyl]-isoxazol-4-ylamine], for which the IC50 on SCD1 was found to be 259 nM.

Regarding `Nc1conc1-c1ccc(OCc2ccc3c(c2)C=CS3(=O)=O)cc1` [Example 33, 3-[4-(1,1-Dioxo-1H-1lambda*6*-benzo[b]thiophen-5-ylmethoxy)-phenyl]-isoxazol-4-ylamine], at SCD1, the 50% inhibitory concentration (IC50) was 411 nM.

For `Nc1conc1-c1ccc(OCc2ccc(S(=O)(=O)c3ccccc3)cc2)cc1` [Example 34, 3-[4-(4-Benzenesulfonyl-benzyloxy)-phenyl]-isoxazol-4-ylamine], the concentration for half-maximal inhibition (IC50) on SCD1 came out at 673 nM.

Turning to `CSc1ccc(COc2ccc(-c3nocc3N)cc2)cc1` [Example 35, 3-[4-(4-Methylsulfanyl-benzyloxy)-phenyl]-isoxazol-4-ylamine hydrochloride], the IC50 on SCD1 came out at 99 nM.

For the compound `Nc1conc1-c1ccc(OCc2ccc(SC(F)(F)F)cc2)cc1` [Example 36, 3-[4-(4-Trifluoromethylsulfanyl-benzyloxy)-phenyl]-isoxazol-4-ylamine hydrochloride], the 50% inhibitory concentration (IC50) at SCD1 is 51 nM.
